According to patent publication US10105351B2, “Neurofibromatoses therapeutic agents and screening for same” (University of Central Florida Research Foundation, Inc., priority 2012, dated 2018):
Counter-ions that a name gives are not always drawn. Like-named read-outs stand apart in the source and are kept apart here.

Key:
[1] = test system: merlin-null Schwann cells; test: Primary assay: live cell protease assay (CellTiter-Fluor), cell viability; details: for Primary Assay (m +/− sd), cell viability: mean and SD of four assays
Description: (§3) Cell viability was measured with the CellTiter-Fluor Live Protease Assay (Promega). […] One way ANOVA Kurskal-Wallis test was used with a Dunn's Multiple Comparison post-test.
(§4) The compounds were tested at 10 uM in 8 replicates in a 384-well format using the live cell protease assay (CellTiter-Fluor) and the orthogonal ATP-based assay (CellTiter-GLO) (both from Promega). We tested the compounds on two Merlin-null Schwann cell lines, L1, (used in the LOPAC screen) at passages ranging from 13-23 and an independently-derived line, L2, tested at passage 20 and 21.

[2] = test system: normal nf2^flox2/flox2 Schwann cells; test: Selectivity assay: cell viability of normal Schwann cells; details: one assay with mouse nf2^flox2/flox2 Schwann cells at P2
Description: as §4

[3] = test system: merlin-null Schwann cells; test: Apo-ONE Homogeneous caspase-3/7 assay; format: cell-based, mouse; details: 8 hours, 384-well format
Description: (§1) FIGS. 8A-C. Phenotypic Apoptosis Assays. (A). Merlin-null Schwann cells in a 384-well format were incubated with the indicated compounds for 8 hours. Caspase-3/7 activity was measure with Apo-ONE Homogeneous Assay (Promega). n=32 wells. (B). Merlin-null Schwann cells in a 6-well format were treated with compounds (10 uM) for 24 hours. Membrane asymmetry was detected with Violet Ratiometric assay and read on a BD Cantos II flow cytometer. (C). Population distribution for B is shown.
(§2) In yet another aspect, compounds may be identified which induce programmed cell death or inhibit proliferation of Merlin-null Schwann cells. Merlin-pathway assays may be conducted to identify the subset of compounds that modulate the activity of known merlin pathways. The effector caspase cascade is activated in many extrinsic and intrinsic cell death pathways^29. […] The effect of compounds on caspase-3 activity can be measured by first lysing the cells and centrifuging to pellet the debris. […] Enzyme activity may be measured on an Envision plate reader at Ex400 nm/Em505 nm. The enzyme activity may be calculated from a standard curve generated using recombinant caspase-3 enzyme (R&D System, Inc.) and expressed as fold-increase in activity. […] Transfer of phosphatidylserine and phosphatidylethanolamine from the inner to the outer leaflet of the plasma membrane changes the membrane potential that is detected by F2N12S. […]

[4] = test system: merlin-null Schwann cells; test: Orthogonal ATP-based luminescence cell viability assay (CellTiter-GLO); details: for Orthogonal Assay Average of two, cell viability: average of two assays with one cell line at P18-23
[5] = test system: merlin-null Schwann cells; test: Propidium iodide and BrdU/7AAD flow cytometer cell cycle assays; format: cell-based, mouse
Description: FIGS. 9A-D. Phenotypic Proliferation Assays. (A) Merlin-null Schwann cells (384-well format) were treated with the indicated compounds and concentrations for 24 hours and labeled with EdU during the last 9 hours. Incorporation of EdU into S-phase cells was read on a Biotek H1 Hybrid reader. (B) The plate was also imaged with a Trophos high resolution fluorescence Plate Runner. (C). Merlin-null Schwann cells were grown in 6-well format and were treated with 5 uM compounds for 22 hours, then labeled with PI. The cell population profile is shown and was analyzed using the ModFit program. (D). Merlin-null Schwann cells were grown as in C but were labeled with BrdU during the final 3 hours of treatment then stained with 7AAD. The distribution of BrdU- and 7AAD-labelled cells is shown and was analyzed with Diva program. The BD Cantos II flow cytometer was used above.
In yet another aspect, identification of compounds that affect proliferation of Merlin-null mouse Schwann cells can be performed by conducting a Click-iT EdU Microplate Assay (Life Technologies) in the 384 well-plate format and then follow-up with BrdU/7AAD and propidium iodide flow cytometer assays. […] Fluorescence emission is measured on a Hybrid HT plate reader (FIG. 9A) as well as on a Trophos Plate RUNNER HD that captures images of the wells (FIG. 9B). […]

[6] = test system: merlin-null Schwann cells; details: 10 µM
Description: as §3, §4

[7] = test system: merlin-null Schwann cells; details: 10 µM; remark: listed apart in the source
[8] = test system: normal nf2^flox2/flox2 Schwann cells; details: 10 µM
Description: as §4

[9] = test system: merlin-null Schwann cells; test: MultiTox-Fluor Multiplex Cytotoxicity Assay (assay validation and LOPAC pilot screen); format: cell-based, mouse; details: 50 μM; 384-well plate, 5,000 cells/well
Description: Merlin-null Schwann cells were seeded at 5,000 cells/well in an uncoated Corning Cell-Bind 384-well plate. A) Result of a rapamycin dose response study conducted with the MultiTox-Fluor assay is shown. B) Cell viability in the presence of 0.5% DMSO or 0.5% DMSO plus 50 μM rapamycin (RM) added 4 hours after plating was measured 24 hours later as described in the FIG. 3 legend.
A pilot screen of Sigma's LOPAC was conducted to test the reliability of our system. The 1280 compounds were tested at 10 μM in 0.5% DMSO in single wells. They were added 4 hours after cell plating and the MultiTox-Fluor assay was run 24 hours later. The positive control included cells treated with 50 μM rapamycin in 0.5% DMSO and the negative control included cells treated with 0.5% DMSO. The signals for live and dead protease activities were collected sequentially. […] The screen yielded 40 hits using a cut-off value equal to 80% of the live:dead signal of the rapamycin positive control which was equivalent to 50% of live cell signal (FIG. 5). The hits represent a spectrum of compounds that fall into 5 basic categories; 1) inhibitors of signaling kinases, 2) cell-cycle inhibitors, 3) pro-apoptotic agents, 4) receptor inhibitors and 5) modulators of cell metabolism.

[10] = test system: merlin-null Schwann cells; test: Violet Ratiometric Membrane Asymmetry Probe/Dead Cell Apoptosis assay (flow cytometer); format: cell-based, mouse; details: 10 uM, 24 hours, 6-well format
Description: as §1, §2

[11] = 10 uM, 8 replicates, 384 well plate, two independently derived merlin-null Schwann cell lines at P13-23

Molecule: N#C/C(=C\c1ccc(-c2cc(Cl)ccc2Cl)o1)C(=O)Nc1cccc2ncccc12 [AGK2, 2-Cyano-3-[5-(2,5-dichlorophenyl)-2-furanyl]-N-5-quinolinyl-2-propenamide]
- cell viability ([1]; 10 uM, 24 hours, lines L1, L2 at P12-18, CellTiter-Fluor): < 50 % of DMSO control
- Primary Assay (m +/− sd), cell viability [1, 11]: 65 +/− 14 % of DMSO Control
- Selectivity Assay, cell viability ([2]; 10 uM): 42 % of DMSO Control
- mechanism of apoptotic death with respect to caspase-3/7 activity [3]: caspase3/7-independent
- Orthogonal Assay Average of two, cell viability ([4]; 10 uM): 78.6 % of DMSO Control
- activity on viability in orthogonal screen and dose response ([4]; Merlin-null Schwann cells L1P12): confirmed
- anti-proliferative effects on the cells ([5]; 24 hours of drug treatment and S-phase labelling for the final 3 hours): did not reveal clear anti-proliferative effects

Molecule: CC(C)C(=O)Nc1ncc(-c2cc(C(F)F)nn2-c2c(Cl)cccc2Cl)s1 [BMS-5]
- Primary Assay (m +/− sd), cell viability [6]: 65 +/− 14 % of DMSO Control
- Orthogonal Assay Average of two, cell viability [7]: 63.2 % of DMSO Control
- mechanism of apoptotic death with respect to caspase-3/7 activity [3]: caspase3/7-independent
- PI labeling and BrdU cell cycle profiles ([5]; 5 uM, 22 hours): accumulate in G2/M

Molecule: Ic1ccccc1CNC1C2CCN(CC2)C1C(c1ccccc1)c1ccccc1 [L-703,606 oxalate salt hydrate, cis-2-(Diphenylmethyl)-N-[(2-iodophenyl)methyl]-1-azabicyclo[2.2.2]octan-3-amine]
- Primary Assay (m +/− sd), cell viability [1, 11]: 62 +/− 11 % of DMSO Control
- Orthogonal Assay Average of two, cell viability ([4]; 10 uM): 40.6 % of DMSO Control
- Selectivity Assay, cell viability [8]: 33 % of DMSO Control

Molecule: CO[C@H]1C[C@@H]2CC[C@@H](C)[C@@](O)(O2)C(=O)C(=O)N2CCCC[C@H]2C(=O)O[C@H]([C@H](C)C[C@@H]2CC[C@@H](O)[C@H](OC)C2)CC(=O)[C@H](C)/C=C(\C)[C@@H](O)[C@@H](OC)C(=O)[C@H](C)C[C@H](C)/C=C/C=C/C=C/1C [Rapamycin, rapamycin]
- Primary Assay (m +/− sd), cell viability ([1]; 50 uM, two merlin-null Schwann cell lines at P13-23): 18 +/− 3 % of DMSO Control
- Selectivity Assay, cell viability ([2]; 50 uM): 30 % of DMSO Control
- Orthogonal Assay Average of two, cell viability ([4]; 50 uM): 10.6 % of DMSO Control
- Viability of cells (live cell protease) [9]: 20+/−1.4 % of the DMSO control

Molecule: chelerythrine chloride
- apoptotic death (Q1+Q3) of cells [10]: 93%
